In patent US20260373103A1, “COMPOSITIONS AND METHODS FOR PREVENTING CARDIOMYOPATHY” (OHIO STATE INNOVATION FOUNDATION, priority 2022, published 2026):
“Also recorded” adds a separate entry of the source.

Key:
mitochondrial function = experiment: Mitochondrial function overall in cells; assay type: cell-based; details: regardless of USP30 expression
Protocol: HeLa cells and mouse embryonic fibroblasts (MEFs) were grown in Dulbecco's minimum essential medium (DMEM) with 10% fetal bovine serum (FBS) supplemented with penicillin-streptomycin. HeLa Parkin, PINK1 KO cells, WT and MFN2 KO cells were previously described. Cells stably expressing USP30 were generated using lentiviral vectors of pLVX-Puro-Myc-USP30. The USP30 plasmid was obtained from Addgene. The plasmid was transferred into a lentiviral vector and viral particles were prepared by transiently transfecting HEK293T using standard methods. For the drug treatment experiments, cells were incubated in medium containing a mixture of 5 μM oligomycin and 5 μM antimycin A (A/O; see figures for treatment times). In 18 h treatment, A/O were used in combination with 10 μM quinolyl-valyl-O-methylaspartyl-[−2,6-difluorophenoxy]-methyl ketone (QVD), a broad-spectrum caspase inhibitor. ST51000539 (ST-539) was purchased from Tim Tec, Inc. Other chemicals were from Sigma-Aldrich (St. Louis, MO, USA). For FACS analysis, cells stably expressing mt-Keima were incubated in medium containing a mixture of […] antimycin A for 1.5 h. Prior to A/O treatment, cultures were treated with DMSO or ST-539 at 3 μg/ml. Cells were trypsinized, washed once with PBS buffer and then resuspended into 500 μl of PBS prior to analysis using a BD Fortessa flow cytometer as previously described.

[1] = Plasma pharmacokinetics after i.p. injection; assay type: in vivo; details: mice, 25 mg/kg i.p.
Protocol: ST-539 was dissolved into 1% DMSO in Sesame oil and injected intraperitoneally (i.p.) at doses of 25 mg/kg. Serial blood samples were collected at 0.083, 0.25, 0.5, 1, 2, 4 and 8 hours post dosing. Mice were euthanized at 24 hours post dosing. A terminal blood sample was collected by cardiac puncture followed by harvesting the brain and heart. Transcardial perfusion was performed prior to brain collection. The blood samples were placed in microtubes pretreated with K2EDTA as an anticoagulant and kept on ice until centrifugation. The tissue samples were rinsed using cold distilled water to remove blood, blotted dry, weighed and stored on dry ice until LC/MS/MS analysis. Plasma was transferred into polypropylene tubes or 96-well plates, quick frozen on dry ice, and stored at −70±10 °C until LC/MS/MS analysis.

For `CC(C)(C)NS(=O)(=O)c1cccc2c(NC(=O)C(Cc3ccccc3)NC(=O)c3ccccc3)cccc12` (stereo not shown) [ST-539], the “effect on mitochondrial function” value (mitochondrial function) was “minimal effect on mitochondrial function; also recorded: marginally alters mitochondrial function”, the “area under the plasma drug concentration-time curve (AUC)” value [1] was ~ 4.2 μg·h/ml and the “half-life (T1/2)” value [1] was “about 3.85 hr”. The “maximum plasma concentration (Cmax)” value [1] was “about 1.4 μg/ml”, the “time to reach peak plasma concentration (Tmax)” value [1] was 1.33 h and the AUC0-inf ([1]; plasma) was 4240 ng·h/mL. It also gave an AUC0-last ([1]; plasma) of 4162 ng·h/mL, a Cmax ([1]; plasma) of 1427 ng/mL and an MRT0-inf ([1]; plasma) of 4.27 h. The MRT0-last ([1]; plasma) was 3.86 h, the T1/2 ([1]; plasma) was 3.85 h and the Tlast ([1]; plasma) was 24.0 h. For the same molecule, the Tmax ([1]; plasma) was 1.33 h.
